This test addresses T1, recombinant human GR (Homo sapiens, UniProt P04150).
T1 construct: purchased Panvera/Invitrogen P2812 (kit P2893)
T1 sequence (P04150 1-777): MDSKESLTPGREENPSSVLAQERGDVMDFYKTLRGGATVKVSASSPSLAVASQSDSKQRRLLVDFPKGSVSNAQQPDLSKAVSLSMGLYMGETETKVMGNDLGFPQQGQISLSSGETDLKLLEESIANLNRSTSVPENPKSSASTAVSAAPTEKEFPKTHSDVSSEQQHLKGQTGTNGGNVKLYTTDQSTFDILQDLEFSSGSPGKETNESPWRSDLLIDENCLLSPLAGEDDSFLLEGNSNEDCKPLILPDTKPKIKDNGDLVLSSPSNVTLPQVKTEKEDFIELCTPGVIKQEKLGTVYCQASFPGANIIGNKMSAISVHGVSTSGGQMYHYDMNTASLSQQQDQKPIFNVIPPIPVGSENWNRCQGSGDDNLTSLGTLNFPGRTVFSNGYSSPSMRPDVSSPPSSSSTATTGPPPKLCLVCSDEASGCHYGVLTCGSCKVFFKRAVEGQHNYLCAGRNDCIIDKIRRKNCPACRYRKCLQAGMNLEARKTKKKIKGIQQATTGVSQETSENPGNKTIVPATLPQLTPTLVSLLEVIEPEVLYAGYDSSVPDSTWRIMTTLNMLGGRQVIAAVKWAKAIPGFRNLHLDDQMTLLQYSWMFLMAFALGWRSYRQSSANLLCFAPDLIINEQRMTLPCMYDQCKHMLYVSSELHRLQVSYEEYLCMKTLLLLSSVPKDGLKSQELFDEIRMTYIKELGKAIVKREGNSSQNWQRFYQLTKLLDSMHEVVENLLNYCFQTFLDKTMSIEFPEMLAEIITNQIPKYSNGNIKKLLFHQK
The experiment in a line: Human Glucocorticoid Receptor (GR) Assay, fluorescence polarization. The following applies: GS Red tracer, incubated 2 h at r.t., XLfit model 205, read-out: GRhuFL_FP_v2 Mean IC50. The test is classed as binding. The method, boiled down:
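After 2 h dark incubation at r.t., polarization reported displacement of the GS Red tracer from recombinant GR, in buffer with phosphate, molybdate, EDTA, DTT and Stabilizing Peptide. Controls: dexamethasone (100%) and DMSO (0%).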

Structures are written as SMILES.

As for `Cc1cc(F)ccc1[C@@H](Oc1ccc2c(cnn2-c2ccc(F)cc2)c1)[C@H](C)NC(=O)C(C)(C)F` [Example 248, 2-fluoro-N-[(1R,2S)-1-(4-fluoro-2-methyl-phenyl)-1-[1-(4-fluorophenyl)indazol-5-yl]oxy-propan-2-yl]-2-methyl-propanamide], the IC50 (commonly the concentration that inhibits the measured activity by half) is 4.8 nM.

With `Cc1ccc(F)cc1[C@@H](Oc1ccc2c(cnn2-c2ccc(F)cc2)c1)[C@H](C)NC(=O)C(C)(C)F` [Example 249, 2-fluoro-N-[(1R,2S)-1-(5-fluoro-2-methyl-phenyl)-1-[1-(4-fluorophenyl)indazol-5-yl]oxy-propan-2-yl]-2-methyl-propanamide], the IC50 came out at 5 nM.

For the molecule `COc1ccc(F)cc1[C@@H](Oc1ccc2c(cnn2-c2ccc(F)cc2)c1)[C@H](C)NC(=O)C(C)(C)F` [Example 250, 2-fluoro-N-[(1R,2S)-1-(5-fluoro-2-methoxy-phenyl)-1-[1-(4-fluorophenyl)indazol-5-yl]oxy-propan-2-yl]-2-methyl-propanamide], the half-maximal inhibitory concentration (IC50) was 6.9 nM.

On to `C[C@H](NC(=O)C(C)(C)CO)[C@H](Oc1ccc2c(cnn2-c2ccc(F)cc2)c1)c1ccc(F)c(F)c1` [Example 251, N-[(1R,2S)-1-(3,4-difluorophenyl)-1-[1-(4-fluorophenyl)indazol-5-yl]oxy-propan-2-yl]-3-hydroxy-2,2-dimethyl-propanamide], for which the IC50 turned out to be 5.3 nM.

With `Cc1ccc([C@@H](Oc2ccc3c(cnn3-c3ccc(F)cc3)c2)[C@H](C)NC(=O)C(C)(C)CO)cc1F` [Example 252, N-[(1R,2S)-1-(3-fluoro-4-methyl-phenyl)-1-[1-(4-fluorophenyl)indazol-5-yl]oxy-propan-2-yl]-3-hydroxy-2,2-dimethyl-propanamide], the IC50 came to 4.7 nM.

Regarding `C[C@H](NC(=O)C(C)(C)CO)[C@H](Oc1ccc2c(cnn2-c2ccc(F)cc2)c1)c1cccc(F)c1` [Example 253, N-[(1R,2S)-1-(3-fluorophenyl)-1-[1-(4-fluorophenyl)indazol-5-yl]oxy-propan-2-yl]-3-hydroxy-2,2-dimethyl-propanamide], the IC50 worked out at 7.5 nM.

For the molecule `Cc1ccc(C)c([C@@H](Oc2ccc3c(cnn3-c3ccc(F)cc3)c2)[C@H](C)NC(=O)C(C)(C)CO)c1` [Example 254, N-[(1R,2S)-1-(2,5-dimethylphenyl)-1-[1-(4-fluorophenyl)indazol-5-yl]oxy-propan-2-yl]-3-hydroxy-2,2-dimethyl-propanamide], the IC50 came to 8.5 nM.

On to `C[C@H](NC(=O)C(C)(C)CO)[C@H](Oc1ccc2c(cnn2-c2ccc(F)cc2)c1)c1cccc(Cl)c1` [Example 255, N-[(1R,2S)-1-(3-chlorophenyl)-1-[1-(4-fluorophenyl)indazol-5-yl]oxy-propan-2-yl]-3-hydroxy-2,2-dimethyl-propanamide], for which the IC50 worked out at 5.1 nM.

Take `Cc1cc(F)ccc1[C@@H](Oc1ccc2c(cnn2-c2ccc(F)cc2)c1)[C@H](C)NC(=O)C(C)(C)CO` [Example 256, N-[(1R,2S)-1-(4-fluoro-2-methyl-phenyl)-1-[1-(4-fluorophenyl)indazol-5-yl]oxy-propan-2-yl]-3-hydroxy-2,2-dimethyl-propanamide]: the IC50 was determined as 5.3 nM.

Regarding `COCC(=O)N[C@@H](C)[C@H](Oc1ccc2c(cnn2-c2ccc(F)cc2)c1)c1ccc(C)c(C)c1` [Example 257, N-[(1R,2S)-1-(3,4-dimethylphenyl)-1-[1-(4-fluorophenyl)indazol-5-yl]oxy-propan-2-yl]-2-methoxy-acetamide], the IC50 amounted to 13 nM.

In the case of `COCC(=O)N[C@@H](C)[C@H](Oc1ccc2c(cnn2-c2ccc(F)cc2)c1)c1ccc(F)c(F)c1` [Example 258, N-[(1R,2S)-1-(3,4-difluorophenyl)-1-[1-(4-fluorophenyl)indazol-5-yl]oxy-propan-2-yl]-2-methoxy-acetamide], the IC50 is 4.4 nM.

As for `COCC(=O)N[C@@H](C)[C@H](Oc1ccc2c(cnn2-c2ccc(F)cc2)c1)c1ccc(C)c(F)c1` [Example 259, N-[(1R,2S)-1-(3-fluoro-4-methyl-phenyl)-1-[1-(4-fluorophenyl)indazol-5-yl]oxy-propan-2-yl]-2-methoxy-acetamide], the IC50 came out at 5.3 nM.

For `COCC(=O)N[C@@H](C)[C@H](Oc1ccc2c(cnn2-c2ccc(F)cc2)c1)c1cc(C)ccc1C` [Example 260, N-[(1R,2S)-1-(2,5-dimethylphenyl)-1-[1-(4-fluorophenyl)indazol-5-yl]oxy-propan-2-yl]-2-methoxy-acetamide], the IC50 came to 14 nM.

For `COCC(=O)N[C@@H](C)[C@H](Oc1ccc2c(cnn2-c2ccc(F)cc2)c1)c1ccc(C)cc1C` [Example 261, N-[(1R,2S)-1-(2,4-dimethylphenyl)-1-[1-(4-fluorophenyl)indazol-5-yl]oxy-propan-2-yl]-2-methoxy-acetamide], the IC50 came to 5.7 nM.

Turning to `COCC(=O)N[C@@H](C)[C@H](Oc1ccc2c(cnn2-c2ccc(F)cc2)c1)c1ccc(OC)c(F)c1` [Example 262, N-[(1R,2S)-1-(3-fluoro-4-methoxy-phenyl)-1-[1-(4-fluorophenyl)indazol-5-yl]oxy-propan-2-yl]-2-methoxy-acetamide], the IC50 came out at 4.5 nM.

Regarding `COCC(=O)N[C@@H](C)[C@H](Oc1ccc2c(cnn2-c2ccc(F)cc2)c1)c1cccc(F)c1` [Example 263, N-[(1R,2S)-1-(3-fluorophenyl)-1-[1-(4-fluorophenyl)indazol-5-yl]oxy-propan-2-yl]-2-methoxy-acetamide], the IC50 turned out to be 4.2 nM.

Consider `COc1ccc([C@@H](Oc2ccc3c(cnn3-c3ccc(F)cc3)c2)[C@H](C)NC(=O)C(F)(F)F)cc1F` [Example 264, 2,2,2-trifluoro-N-[(1R,2S)-1-(3-fluoro-4-methoxy-phenyl)-1-[1-(4-fluorophenyl)indazol-5-yl]oxy-propan-2-yl]acetamide], for which the IC50 turned out to be 6.5 nM.

For the molecule `COc1ccc([C@@H](Oc2ccc3c(cnn3-c3ccc(F)cc3)c2)[C@H](C)NC(=O)C2(C)CC2)c(C)c1` [Example 265, N-[(1R,2S)-1-[1-(4-fluorophenyl)indazol-5-yl]oxy-1-(4-methoxy-2-methyl-phenyl)propan-2-yl]-1-methyl-cyclopropane-1-carboxamide], the IC50 was 25 nM.

Consider `Cc1ccc(C)c([C@@H](Oc2ccc3c(cnn3-c3ccc(F)cc3)c2)[C@H](C)NC(=O)C(C)(F)F)c1` [Example 266, N-[(1R,2S)-1-(2,5-dimethylphenyl)-1-[1-(4-fluorophenyl)indazol-5-yl]oxy-propan-2-yl]-2,2-difluoro-propanamide], for which the IC50 turned out to be 2.9 nM.

Consider `COc1cccc([C@@H](Oc2ccc3c(cnn3-c3ccc(F)cc3)c2)[C@H](C)NC(=O)CNC(C)=O)c1` [Example 269, N-[[(1R,2S)-1-[1-(4-fluorophenyl)indazol-5-yl]oxy-1-(3-methoxyphenyl)propan-2-yl]carbamoylmethyl]acetamide], for which the IC50 amounted to 12 nM.

Turning to `COc1cccc([C@@H](Oc2ccc3c(cnn3-c3ccc(F)cc3)c2)[C@H](C)NC(=O)CNC(N)=O)c1` [Example 270, 2-(carbamoylamino)-N-[(1R,2S)-1-[1-(4-fluorophenyl)indazol-5-yl]oxy-1-(3-methoxyphenyl)propan-2-yl]acetamide], the half-maximal inhibitory concentration (IC50) amounted to 8.1 nM.

`COc1cccc([C@@H](Oc2ccc3c(cnn3-c3ccc(F)cc3)c2)[C@H](C)N2C(=O)CNC2=O)c1` [Example 271, 3-[(1R,2S)-1-[1-(4-fluorophenyl)indazol-5-yl]oxy-1-(3-methoxyphenyl)propan-2-yl]imidazolidine-2,4-dione]: the IC50 is 21 nM.

Values taken from patent US8143290B2, “Chemical compounds 572” (AstraZeneca AB, priority 2006, dated 2012).
